Bounds are passed on as bounds.

By Ki is commonly meant a dissociation constant, usually derived from enzyme kinetics or from competition with a known ligand. High values mean a looser hold on the target, low ones a stronger hold on the target.

The assay deals with human plasma kallikrein (Homo sapiens (Human), UniProt P03952). In words: Plasma Kallikrein Activity Assay (chromogenic substrate S2302). The class given is biochemical. To be noted: 2 nM kallikrein, 80 μM S2302, 30° C., pH 7.8; Cheng-Prusoff. In a few lines: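 2 nM human plasma kallikrein incubated at 30° C with 80 μM S2302 and increasing compound concentrations in 50 mM Tris-HCl pH 7.8, 200 mM NaCl, 2.5 mM CaCl2. Activity read as absorbance change at 405 nm; four-parameter logistic fit, Ki by Cheng-Prusoff.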
Chain of human plasma kallikrein (P03952 391-638): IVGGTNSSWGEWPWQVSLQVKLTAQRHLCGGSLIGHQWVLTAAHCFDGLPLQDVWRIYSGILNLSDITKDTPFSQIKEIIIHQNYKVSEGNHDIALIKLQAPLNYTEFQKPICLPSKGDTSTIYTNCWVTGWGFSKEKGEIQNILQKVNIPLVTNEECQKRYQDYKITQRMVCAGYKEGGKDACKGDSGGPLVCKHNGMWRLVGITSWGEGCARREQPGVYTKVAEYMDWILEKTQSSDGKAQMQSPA
Chain of human plasma kallikrein (P03952 20-390 partner): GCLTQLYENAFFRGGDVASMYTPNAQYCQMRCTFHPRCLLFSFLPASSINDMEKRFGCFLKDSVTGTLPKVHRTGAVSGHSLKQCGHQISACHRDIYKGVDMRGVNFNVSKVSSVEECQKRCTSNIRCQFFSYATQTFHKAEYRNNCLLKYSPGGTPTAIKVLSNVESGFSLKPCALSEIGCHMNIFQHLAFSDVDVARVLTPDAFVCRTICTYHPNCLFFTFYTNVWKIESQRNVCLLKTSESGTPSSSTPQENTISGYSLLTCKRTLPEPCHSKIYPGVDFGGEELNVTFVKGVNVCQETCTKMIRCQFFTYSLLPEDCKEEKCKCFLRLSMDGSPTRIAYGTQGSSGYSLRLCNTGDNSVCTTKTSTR
`CCCO[C@@H]1C[C@H](C(=O)Nc2cc(C(N)(CCC3CC3)c3ccncc3)ccc2F)N(C(=O)Nc2ccc(Cl)cn2)C1` (stereo partly drawn) [Compound 52d, (2R,4R)-N2-(5-((+)-1-amino-3-cyclopropyl-1-(pyridin-4-yl)propyl)-2-fluorophenyl)-N1-(5-chloropyridin-2-yl)-4-propoxypyrrolidine-1,2-dicarboxamide] registered an inhibition constant (Ki) of less than 50 nM.
Molecule `NC(CCC1CC1)(c1ccncc1)c1ccc(F)c(NC(=O)[C@H]2CC(F)(F)CN2C(=O)Nc2ccc(Cl)cn2)c1` (stereo partly drawn) [Compound 53d, (R)-N2-(5-((+)-1-amino-3-cyclopropyl-1-(pyridin-4-yl)propyl)-2-fluorophenyl)-N1-(5-chloropyridin-2-yl)-4,4-difluoropyrrolidine-1,2-dicarboxamide] gave an inhibition constant (Ki) of less than 50 nM.
`NC(CCC1CC1)(c1ccncc1)c1ccc(F)c(NC(=O)[C@H]2C[C@](O)(C(F)(F)F)CN2C(=O)Nc2ccc(Cl)cn2)c1` (stereo partly drawn) [Compound 54g, (2R,4R)-N2-(5-(1-amino-3-cyclopropyl-1-(pyridin-4-yl)propyl)-2-fluorophenyl)-N1-(5-chloropyridin-2-yl)-4-hydroxy-4-(trifluoromethyl)pyrrolidine-1,2-dicarboxamide] displayed a Ki of less than 50 nM.
As for `CCO[C@@H]1C[C@H](C(=O)Nc2cc(C(CCC3CC3)(NS(C)(=O)=O)c3ccncc3)ccc2F)N(C(=O)Nc2ccc(Cl)cn2)C1` (stereo partly drawn) [Compound 55a, (2R,4R)-N1-(5-chloropyridin-2-yl)-N2-(5-((+)-3-cyclopropyl-1-(methylsulfonamido)-1-(pyridin-4-yl)propyl)-2-fluorophenyl)-4-ethoxypyrrolidine-1,2-dicarboxamide], the figure is less than 50 nM.
`CCO[C@@H]1C[C@H](C(=O)Nc2cc(C(CCC3CC3)(NC(C)=O)c3ccncc3)ccc2F)N(C(=O)Nc2ccc(Cl)cn2)C1` (stereo partly drawn) [Compound 56a, (2R,4R)-N2-(5-((+)-1-acetamido-3-cyclopropyl-1-(pyridin-4-yl)propyl)-2-fluorophenyl)-N1-(5-chloropyridin-2-yl)-4-ethoxypyrrolidine-1,2-dicarboxamide] had a Ki of less than 50 nM.
The molecule `CO[C@]1(C(F)(F)F)C[C@H](C(=O)Nc2cc(C(N)(CCC3CC3)c3ccncc3)ccc2F)N(C(=O)Nc2ccc(Cl)cn2)C1` (stereo partly drawn) [Compound 57d, (2R,4R)-N2-(5-((+)-1-amino-3-cyclopropyl-1-(pyridin-4-yl)propyl)-2-fluorophenyl)-N1-(5-chloropyridin-2-yl)-4-methoxy-4-(trifluoromethyl)pyrrolidine-1,2-dicarboxamide] returned a Ki of less than 50 nM.
`CCO[C@@H]1C[C@H](C(=O)Nc2cc(C(NCC3CC3)c3cccc(C#N)c3)ccc2F)N(C(=O)Nc2ccc(Cl)cn2)C1` (stereo partly drawn) [Compound 58j, (2R,4R)-N1-(5-chloropyridin-2-yl)-N2-(5-((+)-(3-cyanophenyl)(cyclopropylmethylamino)methyl)-2-fluorophenyl)-4-ethoxypyrrolidine-1,2-dicarboxamide] showed a Ki of less than 50 nM.
The molecule `NC(CCC1CC1)(c1ccncc1)c1ccc(F)c(NC(=O)[C@H]2C[C@](O)(C3CC3)CN2C(=O)Nc2ccc(Cl)cn2)c1` (stereo partly drawn) [Compound 59d, (2R,4S)-N2-(5-((+)-1-amino-3-cyclopropyl-1-(pyridin-4-yl)propyl)-2-fluorophenyl)-N1-(5-chloropyridin-2-yl)-4-cyclopropyl-4-hydroxypyrrolidine-1,2-dicarboxamide] yielded an inhibition constant (Ki) of less than 50 nM.
Take `N#Cc1cccc([C@@H](NCC2CC2)c2ccc(F)c(NC(=O)[C@H]3C[C@@H](O)CN3C(=O)Nc3ccc(Cl)cc3)c2)c1` [Compound 60a, (2R,4R)-N1-(4-chlorophenyl)-N2-(5-((R)-(3-cyanophenyl)(cyclopropylmethylamino)methyl)-2-fluorophenyl)-4-hydroxypyrrolidine-1,2-dicarboxamide]: the Ki was greater than 100 nM.
As for `NC(CCC1CC1)(c1ccc(F)c(NC(=O)[C@H]2C[C@@H](O)CN2C(=O)Nc2ccc(Cl)cn2)c1)c1ccccn1` (stereo partly drawn) [Compound 62c, (2R,4R)-N2-(5-((+)-1-amino-3-cyclopropyl-1-(pyridin-2-yl)propyl)-2-fluorophenyl)-N1-(5-chloropyridin-2-yl)-4-hydroxypyrrolidine-1,2-dicarboxamide], the figure is less than 50 nM.
`N#Cc1ccc(C(N)(CCC2CC2)c2ccc(F)c(NC(=O)[C@H]3C[C@@H](O)CN3C(=O)Nc3ccc(Cl)cc3)c2)cc1` (stereo partly drawn) [Compound 63g, (2R,4R)-N2-(5-((+)-1-amino-1-(4-cyanophenyl)-3-cyclopropylpropyl)-2-fluorophenyl)-N1-(4-chlorophenyl)-4-hydroxypyrrolidine-1,2-dicarboxamide]: the Ki lay within 50 to 100 nM.
On to `NC(CCC1CC1)(c1cccnc1)c1ccc(F)c(NC(=O)[C@H]2C[C@@H](O)CN2C(=O)Nc2ccc(Cl)cc2)c1` (stereo partly drawn) [Compound 64g, (2R,4R)-N2-(5-((+)-1-amino-3-cyclopropyl-1-(pyridin-3-yl)propyl)-2-fluorophenyl)-N1-(4-chlorophenyl)-4-hydroxypyrrolidine-1,2-dicarboxamide], for which the Ki was less than 50 nM.
Regarding `CO[C@@H]1C[C@H](C(=O)Nc2cc(C(N)(CCC3CC3)c3ccccn3)ccc2F)N(C(=O)Nc2ccc(Cl)cc2)C1` (stereo partly drawn) [Compound 65b, (2R,4R)-N2-(5-((+)-1-amino-3-cyclopropyl-1-(pyridin-2-yl)propyl)-2-fluorophenyl)-N1-(4-chlorophenyl)-4-methoxypyrrolidine-1,2-dicarboxamide], the inhibition constant (Ki) is less than 50 nM.
Regarding `CO[C@@H]1C[C@H](C(=O)Nc2cc(C(CCC3CC3)(N[S@+]([O-])C(C)(C)C)c3ccccc3)ccc2F)N(C(=O)Nc2ccc(Cl)cn2)C1` (stereo partly drawn) [Compound 66c, (2R,4R)-N1-(5-chloropyridin-2-yl)-N2-(5-((+)-3-cyclopropyl-1-((R)-1,1-dimethylethylsulfinamido)-1-phenylpropyl)-2-fluorophenyl)-4-methoxypyrrolidine-1,2-dicarboxamide], the inhibition constant Ki was greater than 100 nM.
Then `CCNC(CCC1CC1)(c1ccccc1)c1ccc(F)c(NC(=O)[C@H]2C[C@@H](OC)CN2C(=O)Nc2ccc(Cl)cn2)c1` (stereo partly drawn) [Compound 67b, (2R,4R)-N1-(5-chloropyridin-2-yl)-N2-(5-((+)-3-cyclopropyl-1-(ethylamino)-1-phenylpropyl)-2-fluorophenyl)-4-methoxypyrrolidine-1,2-dicarboxamide], with greater than 100 nM.
As for `CC(C)(C)[S@@+]([O-])NC(CCC1CC1)(c1ccncc1)c1ccc(F)c(NC(=O)[C@H]2C[C@@H](O)CN2C(=O)Nc2ccc(Cl)cc2)c1` (stereo partly drawn) [Compound 68a, (2R,4R)-N1-(4-chlorophenyl)-N2-(5-(3-cyclopropyl-1-((R)-1,1-dimethylethylsulfinamido)-1-(pyridin-4-yl)propyl)-2-fluorophenyl)-4-hydroxypyrrolidine-1,2-dicarboxamide], the Ki was less than 50 nM.
`NC(CCC1CC1)(c1ccncc1)c1ccc(F)c(NC(=O)[C@H]2C[C@@H](O)CN2C(=O)Nc2ccc(Cl)cc2)c1` (stereo partly drawn) [Compound 69a, (2R,4R)-N2-(5-((+)-1-amino-3-cyclopropyl-1-(pyridin-4-yl)propyl)-2-fluorophenyl)-N1-(4-chlorophenyl)-4-hydroxypyrrolidine-1,2-dicarboxamide] registered a Ki of less than 50 nM.
`CO[C@@H]1C[C@H](C(=O)Nc2cc(C(N)(CCC3CC3)c3ccncc3)ccc2F)N(C(=O)Nc2ccc(Cl)cn2)C1` (stereo partly drawn) [Compound 70c, (2R,4R)-N2-(5-((+)-1-amino-3-cyclopropyl-1-(pyridin-4-yl)propyl)-2-fluorophenyl)-N1-(5-chloropyridin-2-yl)-4-methoxypyrrolidine-1,2-dicarboxamide] displayed a Ki of less than 50 nM.
As for `CO[C@@H]1C[C@H](C(=O)Nc2cc(C(N)(CCC3CC3)c3ccncc3)ccc2F)N(C(=O)Nc2ccc(Cl)cc2)C1` (stereo partly drawn) [Compound 71a, (2R,4R)-N2-(5-((+)-1-amino-3-cyclopropyl-1-(pyridin-4-yl)propyl)-2-fluorophenyl)-N1-(4-chlorophenyl)-4-methoxypyrrolidine-1,2-dicarboxamide], the inhibition constant (Ki) is less than 50 nM.
Then `NC(CCC1CC1)(c1ccncc1)c1ccc(F)c(NC(=O)[C@H]2C[C@@H](O)CN2C(=O)Nc2ccc(Cl)cn2)c1` (stereo partly drawn) [Compound 72c, (2R,4R)-N2-(5-((+)-1-amino-3-cyclopropyl-1-(pyridin-4-yl)propyl)-2-fluorophenyl)-N1-(5-chloropyridin-2-yl)-4-hydroxypyrrolidine-1,2-dicarboxamide], with less than 50 nM; and `CO[C@@H]1C[C@H](C(=O)Nc2cc(C(CCC3CC3)(NC(C)=O)c3ccncc3)ccc2F)N(C(=O)Nc2ccc(Cl)cn2)C1` (stereo partly drawn) [Compound 73a, (2R,4R)-N2-(5-((+)-1-acetamido-3-cyclopropyl-1-(pyridin-4-yl)propyl)-2-fluorophenyl)-N1-(5-chloropyridin-2-yl)-4-methoxypyrrolidine-1,2-dicarboxamide], with less than 50 nM.
In the case of `CO[C@@H]1C[C@H](C(=O)Nc2cc(C(CCC3CC3)(NS(C)(=O)=O)c3ccncc3)ccc2F)N(C(=O)Nc2ccc(Cl)cn2)C1` (stereo partly drawn) [Compound 74a, (2R,4R)-N1-(5-chloropyridin-2-yl)-N2-(5-((+)-3-cyclopropyl-1-(methylsulfonamido)-1-(pyridin-4-yl)propyl)-2-fluorophenyl)-4-methoxypyrrolidine-1,2-dicarboxamide], the Ki was less than 50 nM.
For the molecule `CO[C@@H]1C[C@H](C(=O)Nc2cccc(C(N)(CCC3CC3)c3ccncc3)c2)N(C(=O)Nc2ccc(Cl)cn2)C1` (stereo partly drawn) [Compound 75e, (2R,4R)-N2-(3-((+)-1-amino-3-cyclopropyl-1-(pyridin-4-yl)propyl)phenyl)-N1-(5-chloropyridin-2-yl)-4-methoxypyrrolidine-1,2-dicarboxamide], the Ki was less than 50 nM.
Then `CO[C@@H]1C[C@H](C(=O)Nc2cc(C(N)(CCC3CC3)c3ccncc3)ccc2F)N(C(=O)Cc2ccc(Cl)cc2)C1` (stereo partly drawn) [Compound 76e, (2R,4R)-N-(5-((+)-1-amino-3-cyclopropyl-1-(pyridin-4-yl)propyl)-2-fluorophenyl)-1-(2-(4-chlorophenyl)acetyl)-4-methoxypyrrolidine-2-carboxamide], with greater than 100 nM.

The values above are taken from patent US10562850B2, “Human plasma kallikrein inhibitors” (priority 2015, dated 2020).
